The results in this text go back to publication PMC6934184, “Selective DNA-PKcs inhibition extends the therapeutic index of localized radiotherapy and chemotherapy” (The Journal of Clinical Investigation, 2019).

This series relates to lung. The experiment in a line: radiation-induced lung fibrosis, Masson's trichrome, modified Ashcroft score. In kind it is in vivo, C57BL/6 mice. Particulars: 30 mg/kg oral 30 min before and 5 h after each of 4 × 5 Gy; 24 weeks. On the procedure: Whole-thorax irradiation (5 Gy) was administered to female C57BL/6 mice (6–8 weeks old) on days 1, 4, 7, and 10 with vehicle or NU5455 treatment. Whole lung sections were stained with Masson’s trichrome to visualize collagen deposition and scored using the modified Ashcroft scale proposed by Hübner et al. ([55]). Further details are provided in Supplemental Methods. […]
combined with 10 Gy thorax irradiation ( n = 6 - 7/group). For whole-thorax irradiation, anaesthetized mice were placed in the supine position in a customized rig. The whole thorax was exposed to X-ray radiation generated by the Gulmay Medical RS320 irradiation system (2.034 Gy/minute). The rest of the body was protected by lead shields. […]
Tumor growth in the remaining mice was monitored by bioluminescent imaging on days 0, 4, 8 and 15 post-treatment. […] Data were analyzed using LivingImage software (PerkinElmer). […]
Tissues were fixed in 4% paraformaldehyde (PFA) and paraffin -embedded. […] One tissue section from each of 3 mice per group was examined, and the whole section (excluding necrotic areas) analyzed using ImageScope analysis software (Aperio Technologies). γH2AX and 53BP1 foci were manually counted in 200 nuclei from each tumor sample. The percentage of γH2AX and 53BP1 positive nuclei in lung epithelial cells was quantified manually in normal lung samples across 5 randomly-chosen fields of view per […]

In the case of `CN(C(=O)CN1CCOCC1)c1ccc2sc3c(-c4cccc5c(=O)cc(N6CC7CCC(C6)O7)oc45)cccc3c2c1` [NU5455], the radiation-induced lung fibrosis entry was “did not exacerbate radiation-induced lung fibrosis”.
